Results published in publication PMC8508710, “Biochemical Characterization of 13-Lipoxygenases of Arabidopsis thaliana” (International Journal of Molecular Sciences, 2021).
Read-outs that look alike come from different tables or passages of the source.

What was measured:
AOS = tested on: AOS; parameters: method as in PMID 12223729; settings: cited from earlier work
AOC = tested on: AOC; parameters: method as in PMID 12223729; settings: cited from earlier work
LOX4 [1] = target: T1, LOX4 (Arabidopsis thaliana, UniProt Q9FNX8); assay: LOX4 activity, oxygen electrode (polarography); assay type: biochemical; parameters: made in house; host or cells: E. coli Nico21(DE3), pET15b; settings: for Relative Activity (%) LOX4: 1 mM metal salt, LeA 30 µM in 20 mM HEPES pH 8.0, oxygen consumption vs control without metal
T1 sequence (Q9FNX8 71-926): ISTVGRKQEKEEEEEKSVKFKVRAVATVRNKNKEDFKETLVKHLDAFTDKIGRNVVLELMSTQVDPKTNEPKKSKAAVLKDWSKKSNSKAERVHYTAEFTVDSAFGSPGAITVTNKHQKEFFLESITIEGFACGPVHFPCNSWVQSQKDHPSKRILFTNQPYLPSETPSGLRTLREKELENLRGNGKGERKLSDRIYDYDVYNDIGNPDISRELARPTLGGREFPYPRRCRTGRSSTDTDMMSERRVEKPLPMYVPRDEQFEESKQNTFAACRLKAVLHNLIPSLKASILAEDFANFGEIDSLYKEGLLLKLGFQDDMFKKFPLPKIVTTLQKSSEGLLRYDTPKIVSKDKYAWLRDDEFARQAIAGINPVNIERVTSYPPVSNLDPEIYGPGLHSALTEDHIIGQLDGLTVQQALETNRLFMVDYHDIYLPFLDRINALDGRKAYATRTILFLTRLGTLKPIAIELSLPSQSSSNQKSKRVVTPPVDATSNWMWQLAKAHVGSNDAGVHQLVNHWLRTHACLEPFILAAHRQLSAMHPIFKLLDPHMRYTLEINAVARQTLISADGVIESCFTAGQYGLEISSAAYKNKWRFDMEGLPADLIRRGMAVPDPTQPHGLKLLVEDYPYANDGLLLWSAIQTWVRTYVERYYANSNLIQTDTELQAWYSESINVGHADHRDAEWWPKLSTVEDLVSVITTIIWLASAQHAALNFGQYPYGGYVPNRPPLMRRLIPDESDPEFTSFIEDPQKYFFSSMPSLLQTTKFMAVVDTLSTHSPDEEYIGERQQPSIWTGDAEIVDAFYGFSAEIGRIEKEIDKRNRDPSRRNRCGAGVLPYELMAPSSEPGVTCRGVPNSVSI

LOX2 = target: T2, LOX2 (Arabidopsis thaliana, UniProt P38418); assay: LOX2 activity, spectrophotometric (conjugated diene formation at 234 nm); settings: for Mode of inhibition: Lineweaver–Burk plot, 12-OPDA tested at 226 µM; for Photometry Relative activity (%) LOX2: enzyme 0.225 µg/µL incubated 10 min 30 °C with 280 µM chemical, 4.8 µM LeA, 50 mM Tris-HCl pH 7.2, vs solvent control; for Relative Activity (%) LOX2: E. coli lysate in 50 mM TRIS pH 8.0 diluted 1:10, 50 mM HEPES pH 8.0 + 1 mM metal salt, LeA, 234 nm; for LOX2 activity in presence of Cd2+: 9 µM LeA, 20 mM HEPES pH 8.0, control 0.8 ± 0.2
T2 sequence (P38418 71-896): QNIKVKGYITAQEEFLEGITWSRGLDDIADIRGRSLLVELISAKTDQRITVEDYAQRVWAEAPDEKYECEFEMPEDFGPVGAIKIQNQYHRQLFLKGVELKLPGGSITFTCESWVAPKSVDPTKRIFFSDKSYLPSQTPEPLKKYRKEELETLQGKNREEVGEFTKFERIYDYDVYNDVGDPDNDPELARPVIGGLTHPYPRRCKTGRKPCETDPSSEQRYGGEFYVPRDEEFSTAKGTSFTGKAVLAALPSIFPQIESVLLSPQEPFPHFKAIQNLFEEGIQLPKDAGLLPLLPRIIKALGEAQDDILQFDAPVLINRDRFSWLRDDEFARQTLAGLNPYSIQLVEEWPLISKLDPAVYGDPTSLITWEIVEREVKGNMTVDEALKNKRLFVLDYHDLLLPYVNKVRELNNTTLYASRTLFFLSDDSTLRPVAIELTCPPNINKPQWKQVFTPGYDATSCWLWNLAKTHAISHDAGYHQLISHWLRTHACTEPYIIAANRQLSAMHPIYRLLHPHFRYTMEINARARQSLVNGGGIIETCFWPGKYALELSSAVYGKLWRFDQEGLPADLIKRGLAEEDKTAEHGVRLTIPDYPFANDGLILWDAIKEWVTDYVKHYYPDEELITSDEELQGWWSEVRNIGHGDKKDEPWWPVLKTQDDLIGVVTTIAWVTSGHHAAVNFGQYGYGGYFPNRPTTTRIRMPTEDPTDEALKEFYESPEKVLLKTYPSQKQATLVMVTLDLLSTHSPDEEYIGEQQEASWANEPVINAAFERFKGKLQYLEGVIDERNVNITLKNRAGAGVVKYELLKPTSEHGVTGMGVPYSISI

LOX4 [2] = target: T1, LOX4; assay: LOX4 activity, spectrophotometric (conjugated diene formation at 234 nm); settings: for Photometry Relative activity (%) LOX4: enzyme 0.225 µg/µL incubated 10 min 30 °C with 280 µM chemical, 4.8 µM LeA, 50 mM Tris-HCl pH 7.2, vs solvent control; for Relative Activity (%) LOX4: E. coli lysate in 50 mM TRIS pH 8.0 diluted 1:10, 50 mM HEPES pH 8.0 + 1 mM metal salt, LeA, 234 nm
LOX3 = target: T3, LOX3 (Arabidopsis thaliana, UniProt Q9LNR3); assay: LOX3 activity, oxygen electrode (polarography); assay type: biochemical; parameters: made in house; host or cells: E. coli Nico21(DE3), pET15b; settings: for Relative Activity (%) LOX3: 1 mM metal salt, LeA 30 µM in 20 mM HEPES pH 8.0, oxygen consumption vs control without metal
T3 sequence (Q9LNR3 71-919): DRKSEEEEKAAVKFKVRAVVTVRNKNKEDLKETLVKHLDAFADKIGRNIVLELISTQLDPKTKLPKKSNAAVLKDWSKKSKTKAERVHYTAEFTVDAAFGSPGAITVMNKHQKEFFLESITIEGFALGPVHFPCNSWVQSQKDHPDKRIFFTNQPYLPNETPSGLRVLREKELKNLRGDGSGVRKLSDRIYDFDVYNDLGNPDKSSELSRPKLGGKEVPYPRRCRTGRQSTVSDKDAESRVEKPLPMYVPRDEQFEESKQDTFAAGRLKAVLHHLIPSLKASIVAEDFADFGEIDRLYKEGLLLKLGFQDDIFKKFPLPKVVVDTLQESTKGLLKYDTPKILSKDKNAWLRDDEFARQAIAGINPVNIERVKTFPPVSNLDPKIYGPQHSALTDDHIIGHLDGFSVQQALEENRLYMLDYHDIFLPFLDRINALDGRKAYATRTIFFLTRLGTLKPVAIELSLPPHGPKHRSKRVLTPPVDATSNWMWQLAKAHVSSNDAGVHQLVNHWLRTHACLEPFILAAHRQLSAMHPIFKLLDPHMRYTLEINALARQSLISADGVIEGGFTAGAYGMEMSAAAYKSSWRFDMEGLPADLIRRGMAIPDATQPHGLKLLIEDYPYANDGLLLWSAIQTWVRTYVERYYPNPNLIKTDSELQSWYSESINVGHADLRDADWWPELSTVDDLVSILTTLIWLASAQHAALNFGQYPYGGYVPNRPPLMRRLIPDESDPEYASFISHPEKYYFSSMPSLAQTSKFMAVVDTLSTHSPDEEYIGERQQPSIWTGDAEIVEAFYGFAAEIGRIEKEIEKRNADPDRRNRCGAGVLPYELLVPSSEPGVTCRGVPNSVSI

[3] = 12.2 µg LOX4 + 1.3 mM GSH prior to 140 µM 12-OPDA
[4] = doubled LOX4 concentration + 1.3 mM GSH + 140 µM 12-OPDA

SMILES | Relative Activity (%) LOX3 (LOX3) | Relative Activity (%) LOX4 (LOX4 [1]) | Relative Activity (%) LOX2 (LOX2) | Relative Activity (%) LOX4 (LOX4 [2]) | Mode of inhibition (LOX2) | Photometry Relative activity (%) LOX2 (LOX2) | Photometry Relative activity (%) LOX4 (LOX4 [2]) | Sensitivity of AOS (AOS; 1.0 mM) | Sensitivity of AOC (AOC; 1.0 mM) | other results
CCC=CCC1C(=O)C=CC1CCCCCCCC(=O)O (stereo not drawn) [12-OPDA, cis-(+)-12-oxophytodienoic acid] | – | – | – | – | non-competitive | 49 ± 10% | 6 ± 4% | – | – | Sensitivity of AOS (AOS; 0.5 mM): insensitivity; Sensitivity of AOC (AOC; 0.5 mM): insensitivity; Residual LOX4 activity (LOX4 [1]; 12.2 µg LOX4 + 140 µM 12-OPDA alone): 29.6%; Oxygen consumption (residual LOX4 activity) (LOX4 [1]; 12.2 µg LOX4 + 140 µM 12-OPDA alone, control 9.8 ± 0.1): 2.9 ± 0.1 nmol/mL/min; Oxygen consumption (residual LOX4 activity) (LOX4 [1]; [3]): 3.6 ± 0.1 nmol/mL/min; Residual LOX4 activity (LOX4 [1]; [3]): 36.7%; Residual LOX4 activity (LOX4 [1]; doubled LOX4 concentration + 140 µM 12-OPDA): 34%; Oxygen consumption (residual LOX4 activity) (LOX4 [1]; doubled LOX4 concentration + 140 µM 12-OPDA, control 19.7 ± 0.1): 6.7 ± 0.1 nmol/mL/min; Oxygen consumption (residual LOX4 activity) (LOX4 [1]; [4]): 9.0 ± 0.1 nmol/mL/min; Residual LOX4 activity (LOX4 [1]; [4]): 45.7%; Oxygen consumption (residual LOX4 activity) (LOX4 [1]; doubled LOX4 concentration + 2.6 mM GSH + 140 µM 12-OPDA): 8.5 ± 0.6 nmol/mL/min; IC50 (LOX2): 280 to 338 µM; IC50 (LOX4 [2]): 48 µM; Ki (LOX4 [2]): 10 µM; Mode of inhibition (LOX4 [2]; Lineweaver–Burk and Dixon plots): non-competitive or mixed
O=S(=O)([O-])[O-].[Cd+2] [CdSO4] | no activity | no activity | 950±240% | 40±6% | – | – | – | – | – | LOX2 activity in presence of Cd2+ (LOX2; 40 µM Cd2+, listed as Cd2+): 2.3 ± 0.3 nmol/s/mg; LOX2 activity in presence of Cd2+ (LOX2; 40 µM Cd2+, listed as Cd^2+): 2.3 ± 0.3 nmol/s/mg; LOX2 activity in presence of Cd2+ (LOX2; 150 µM Cd2+, listed as Cd2+): 5.2 ± 0.9 nmol/s/mg; LOX2 activity in presence of Cd2+ (LOX2; 150 µM Cd2+, listed as Cd^2+): 5.2 ± 0.9 nmol/s/mg; LOX2 activity in presence of Cd2+ (LOX2; 1180 µM Cd2+, listed as Cd2+): 5.7 ± 0.7 nmol/s/mg; LOX2 activity in presence of Cd2+ (LOX2; 1180 µM Cd2+, listed as Cd^2+): 5.7 ± 0.7 nmol/s/mg
CC/C=C\CC1C(=O)CCC1CC(=O)OC (stereo not shown) [MJ, methyl jasmonate] | – | – | – | – | competitive | 62 ± 10% | – | – | – | –
O=C(O)/C=C/CCCCCCCCC(=O)O [TA, traumatic acid] | – | – | – | – | – | 105 ± 5% | 106 ± 4% | – | – | –

Further lines, with some results ahead:

Relative Activity (%) LOX3 (LOX3) | Relative Activity (%) LOX4 (LOX4 [1]) | Relative Activity (%) LOX2 (LOX2) | Relative Activity (%) LOX4 (LOX4 [2]) | SMILES | Mode of inhibition (LOX2) | Photometry Relative activity (%) LOX2 (LOX2) | Photometry Relative activity (%) LOX4 (LOX4 [2]) | Sensitivity of AOS (AOS; 1.0 mM) | Sensitivity of AOC (AOC; 1.0 mM) | other results
117 ± 10% | 100 ± 4% | 550±40% | 85±6% | [Ca+2].[Cl-].[Cl-] [CaCl2] | – | – | – | insensitivity | insensitivity | –
135 ± 4% | 106 ± 3% | 188±28% | 107±2% | [Cl-].[Cl-].[Mg+2] [MgCl2] | – | – | – | insensitivity | insensitivity | Increase of LOX3 activity in comparison to control (LOX3; 1 mM cation, LeA 30 µM, pH 8.0): 35%; Increase of LOX4 activity in comparison to control (LOX4 [1]; 1 mM cation, LeA 30 µM, pH 8.0): 6%
